{"source": "patent US20080076824A1", "about": "“Compounds That Inhibit Replication Of Human Immunodeficiency Virus” (priority 2004, published 2008)", "key": {"[1]": {"test_system": "Vesicular stomatitis virus", "settings": "HeLa; reduces virus-induced cytopathogenicity by 50%"}, "Coxsackie virus B4 [2]": {"test_system": "Coxsackie virus B4", "assay": "Antiviral activity in HeLa cell cultures, Coxsackie virus B4", "assay_type": "cell-based", "description": "(§1) The cytotoxicity and antiviral activity of various concentrations of G-NH2 and GPG-NH2 were evaluated in cell cultures that were infected with various types of viruses. Conventional host cell culture, viral infection, and infectivity analysis for each different type of cell and virus were followed. Compounds that were known to inhibit replication of the particular types of viruses analyzed were used as controls."}, "Parainfluenza-3 virus [3]": {"test_system": "Parainfluenza-3 virus", "settings": "Vero; reduces virus-induced cytopathogenicity by 50%"}, "Sindbis virus [4]": {"test_system": "Sindbis virus", "settings": "Vero; reduces virus-induced cytopathogenicity by 50%"}, "Punta Toro virus [5]": {"test_system": "Punta Toro virus", "settings": "Vero; reduces virus-induced cytopathogenicity by 50%"}, "Coxsackie virus B4 [6]": {"test_system": "Coxsackie virus B4", "assay": "Antiviral activity in Vero cell cultures, Coxsackie virus B4", "assay_type": "cell-based", "description": "as §1"}, "Vero cell cultures [7]": {"test_system": "Vero cell cultures"}, "[8]": {"test_system": "Respiratory syncytial virus", "settings": "HeLa; reduces virus-induced cytopathogenicity by 50%"}, "Reovirus-1 [9]": {"test_system": "Reovirus-1", "settings": "Vero; reduces virus-induced cytopathogenicity by 50%"}, "HeLa cell cultures [10]": {"test_system": "HeLa cell cultures"}, "HIV-1 (IIIB)": {"test_system": "HIV-1 (IIIB)", "settings": "in words"}, "[11]": {"molecular_target": "T1, CD26/dipeptidylpeptidase IV (Homo sapiens, UniProt P27487)", "T1 construct": "made in house; by own knowledge a natural human source (seminal plasma), not recombinant", "T1 sequence (P27487 whole entry)": "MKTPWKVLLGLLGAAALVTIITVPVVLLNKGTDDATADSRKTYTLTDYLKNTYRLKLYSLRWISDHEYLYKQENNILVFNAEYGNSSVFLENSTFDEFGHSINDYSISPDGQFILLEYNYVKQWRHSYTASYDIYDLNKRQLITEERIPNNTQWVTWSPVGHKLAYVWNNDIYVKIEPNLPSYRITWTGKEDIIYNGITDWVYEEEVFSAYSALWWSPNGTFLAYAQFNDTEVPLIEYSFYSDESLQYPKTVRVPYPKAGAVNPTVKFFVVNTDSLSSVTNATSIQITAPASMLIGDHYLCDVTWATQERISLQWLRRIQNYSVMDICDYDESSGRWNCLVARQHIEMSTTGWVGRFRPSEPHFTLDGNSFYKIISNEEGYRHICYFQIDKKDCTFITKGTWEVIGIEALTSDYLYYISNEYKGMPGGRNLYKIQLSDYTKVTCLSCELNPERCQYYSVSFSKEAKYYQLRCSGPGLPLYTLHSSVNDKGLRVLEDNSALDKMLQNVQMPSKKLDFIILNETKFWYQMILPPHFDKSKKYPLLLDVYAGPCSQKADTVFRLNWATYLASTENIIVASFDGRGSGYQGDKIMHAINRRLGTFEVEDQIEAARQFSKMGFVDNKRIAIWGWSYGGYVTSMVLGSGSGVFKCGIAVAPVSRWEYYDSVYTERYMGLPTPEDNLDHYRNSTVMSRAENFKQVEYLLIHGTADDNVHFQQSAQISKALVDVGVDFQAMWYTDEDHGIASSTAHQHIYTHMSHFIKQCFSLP", "assay": "Conversion of GPG-NH2 to GP-OH and G-NH2 by purified CD26", "assay_type": "biochemical", "description": "In some experiments, approximately, 100 μM GPG-NH2 was exposed to 25 units/l of purified CD26 and the mixture was incubated for up to 400 minutes at room temperature. The lymphocyte surface glycoprotein CD26/dipeptidylpeptidase IV was purified as described before. (See De Meester, J. Immunol. Methods, 189:99-105 (1996), herein expressly incorporated by reference in its entirety). At different time points, an aliquot of the reaction mixture was withdrawn and analyzed on an electrospray ion trap mass spectrometer (Esquire, Bruker, Bremen, Germany). The appearance of the dipeptide GP-OH upon release from the amino terminal end of the GPG-NH2 molecule, as well as, the disappearance of intact GPG-NH2 from the reaction mixture was determined and monitored by electrospray ion trap mass spectometric analysis at different time points (See FIG. 3). Under these experimental conditions, CD26 released GP-OH in a time-dependent manner from GPG-NH2, and virtually completely converted GPG-NH2 to GP-OH and G-NH2 within 4 to 6 hrs of the reaction.\nNext, the conversion of radiolabeled [^14C]GPG-NH2 to [^14C]G-NH2 by purified CD26, fetal bovine serum (FBS), human serum (HS) and CEM cell suspensions was analyzed. […] A variety of these [^14C]GPG-NH2 concentrations were exposed to purified CD26, FBS, HS and CEM cell suspensions and the conversion to G-NH2 was analyzed. […]"}, "in vitro": {"assay": "in vitro", "settings": "human"}, "HIV-2 (EHO)": {"test_system": "HIV-2 (EHO)", "description": "(§2) Human T-lymphocytic CEM cells (4.5×10^5 cells per ml) were suspended in fresh cell culture medium and infected with HIV-1 (IIIB and NL4.3) or HIV-2 (ROD or EHO) at 100 CCID50 (1 CCID50 being the virus dose infective for 50% of the cell cultures) per ml of cell suspension. Then, 100 μl of the infected cell suspension were transferred to microplate wells, mixed with 100 μl of appropriate (freshly prepared) dilutions of the test compounds (i.e., at final concentrations of […]), and were further incubated at 37° C. After 4 to 5 days, giant cell formation was recorded microscopically in the CEM cell cultures."}, "HIV-2 (ROD)": {"test_system": "HIV-2 (ROD)", "assay": "microbe, parasite or virus in culture", "assay_type": "cell-based", "settings": "2 (ROD)", "description": "as §2, with “cultures. […] (See Table 1).” for “cultures.”\nMT-4, C8166 or CEM cells (4 to 5×10^5 cells per ml) were suspended in fresh culture medium (RPMI-1640 medium supplemented with 10% fetal bovine serum (FBS) (BioWittaker Europe, Verviers, Belgium), 2 mM L-glutamine and […] NaHCO3). Subsequently, the cells were infected with HIV-1 (IIIB) or HIV-2(ROD) at ˜100 CCID50 (1 CCID50 being the dose infective for 50% of the cell cultures) per ml of cell suspension. Then, 100 μl of the infected cell suspension were transferred to 96-well microplate wells, mixed with 100 μl of the appropriate (5-fold) dilutions of the test compounds and further incubated at 37° C. After 4 to 5 days, giant cell formation was recorded microscopically in the CEM and C8166 cell cultures. The MT-4 cell cultures were treated with trypan blue and the number of viable cells was determined."}, "[12]": {"test_system": "Vesicular stomatitis virus", "assay": "microbe, parasite or virus in culture", "settings": "HeLa, read-out: Minimum inhibitory concentration Vesicular stomatitis virus"}, "HeLa cell cultures [13]": {"test_system": "HeLa cell cultures", "assay": "Cytotoxicity in HeLa cell cultures (cell morphology)", "settings": "alteration of normal cell morphology"}, "Reovirus-1 [14]": {"test_system": "Reovirus-1", "assay": "organism not typed", "settings": "Vero, read-out: Minimum inhibitory concentration Reovirus-1"}, "Parainfluenza-3 virus [15]": {"test_system": "Parainfluenza-3 virus", "assay": "organism not typed", "settings": "Vero, read-out: Minimum inhibitory concentration Parainfluenza-3 virus"}, "Sindbis virus [16]": {"test_system": "Sindbis virus", "assay": "microbe, parasite or virus in culture", "settings": "Vero, read-out: Minimum inhibitory concentration Sindbis virus"}, "HEL cell cultures": {"test_system": "HEL cell cultures", "assay": "Cytotoxicity in HEL cell cultures (cell morphology)", "settings": "alteration of normal cell morphology"}, "Vaccinia virus": {"test_system": "Vaccinia virus", "assay": "microbe, parasite or virus in culture", "settings": "Orthopoxvirus vaccinia, HEL, read-out: Minimum inhibitory concentration Vaccinia virus"}, "[17]": {"test_system": "Herpes simplex virus-1 (KOS)", "assay": "microbe, parasite or virus in culture", "settings": "Human alphaherpesvirus 1, HEL, read-out: Minimum inhibitory concentration Herpes simplex virus-1 (KOS)"}, "[18]": {"test_system": "Vesicular stomatitis virus", "assay": "microbe, parasite or virus in culture", "settings": "HEL, read-out: Minimum inhibitory concentration Vesicular stomatitis virus"}, "Punta Toro virus [19]": {"test_system": "Punta Toro virus", "assay": "microbe, parasite or virus in culture", "settings": "Vero, read-out: Minimum inhibitory concentration Punta Toro virus"}, "Vero cell cultures [20]": {"test_system": "Vero cell cultures", "assay": "Cytotoxicity in Vero cell cultures (cell morphology)", "settings": "alteration of normal cell morphology"}, "[21]": {"test_system": "Herpes simplex virus-2 (G)", "assay": "microbe, parasite or virus in culture", "settings": "Human alphaherpesvirus 2, HEL, read-out: Minimum inhibitory concentration Herpes simplex virus-2 (G)"}, "[22]": {"test_system": "Respiratory syncytial virus", "assay": "microbe, parasite or virus in culture", "settings": "human respiratory syncytial virus, HeLa, read-out: Minimum inhibitory concentration Respiratory syncytial virus"}, "[23]": {"test_system": "Herpes simplex virus-1 TK^− KOS ACV^r", "assay": "microbe, parasite or virus in culture", "settings": "Human alphaherpesvirus 1, HEL, read-out: Minimum inhibitory concentration Herpes simplex virus-1 TK^− KOS ACV^r"}, "[24]": {"molecular_target": "T2, dipeptidylpeptidase activity associated with BS (Bos taurus, UniProt P81425)", "T2 construct": "from tissue; host or cells: fetal bovine serum", "T2 sequence (P81425 38-765 limits assumed)": "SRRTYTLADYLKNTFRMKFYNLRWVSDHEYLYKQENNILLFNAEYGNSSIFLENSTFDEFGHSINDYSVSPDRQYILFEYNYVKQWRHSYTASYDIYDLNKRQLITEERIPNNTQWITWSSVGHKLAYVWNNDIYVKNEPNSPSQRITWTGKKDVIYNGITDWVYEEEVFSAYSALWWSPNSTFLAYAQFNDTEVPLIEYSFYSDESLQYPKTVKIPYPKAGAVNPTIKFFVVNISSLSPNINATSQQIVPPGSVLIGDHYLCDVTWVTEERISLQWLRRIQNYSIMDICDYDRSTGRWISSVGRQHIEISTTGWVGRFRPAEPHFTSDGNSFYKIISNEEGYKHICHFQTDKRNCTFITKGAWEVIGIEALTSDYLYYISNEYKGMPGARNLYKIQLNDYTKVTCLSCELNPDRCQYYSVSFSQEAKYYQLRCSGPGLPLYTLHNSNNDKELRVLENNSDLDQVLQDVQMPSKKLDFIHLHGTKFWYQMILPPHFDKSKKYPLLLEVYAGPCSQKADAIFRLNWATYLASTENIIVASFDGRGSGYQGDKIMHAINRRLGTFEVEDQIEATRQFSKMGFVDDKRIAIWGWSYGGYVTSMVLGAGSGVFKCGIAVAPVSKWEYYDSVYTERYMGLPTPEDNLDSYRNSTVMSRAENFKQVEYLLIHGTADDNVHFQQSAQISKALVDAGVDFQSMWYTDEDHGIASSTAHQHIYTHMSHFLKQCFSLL", "assay": "Inhibition of dipeptidylpeptidase activity of fetal bovine serum (substrate GP-pNA)", "assay_type": "biochemical", "settings": "read-out: 50% inhibitory concentration (IC50)"}, "[25]": {"settings": "reduces virus-induced cytopathogenicity by 50%"}, "[26]": {"settings": "Enterovirus B, B4, reduces virus-induced cytopathogenicity by 50%, read-out: Minimum inhibitory concentration Coxsackie virus B4"}}, "note": "Where two headings read alike, the source gives them in different places. Non-standard residues stand in square brackets, D forms with d. Residues, ends and D or L forms follow the SMILES beside them. pGlu = O=C1CC[C@@H](C(=O)O)N1"}
{"smiles": "Nc1ncnc2c1ncn2C[C@H](O)CO", "note": "[(S)-DHPA, reference compound]", "values": [{"measurement": "Minimum inhibitory concentration Vesicular stomatitis virus", "setting": "[1]", "value": 240, "unit": "µg/mL"}, {"measurement": "Minimum inhibitory concentration Coxsackie virus B4", "setting": "Coxsackie virus B4 [2]; [25]", "value": ">400", "unit": "µg/mL"}, {"measurement": "Minimum inhibitory concentration Parainfluenza-3 virus", "setting": "Parainfluenza-3 virus [3]", "value": 240, "unit": "µg/mL"}, {"measurement": "Minimum inhibitory concentration Sindbis virus", "setting": "Sindbis virus [4]", "value": ">400", "unit": "µg/mL"}, {"measurement": "Minimum inhibitory concentration Punta Toro virus", "setting": "Punta Toro virus [5]", "value": ">400", "unit": "µg/mL"}, {"measurement": "Minimum inhibitory concentration Coxsackie virus B4", "setting": "Coxsackie virus B4 [6]; [25]", "value": ">400", "unit": "µg/mL"}, {"measurement": "Minimum cytotoxic concentration", "setting": "Vero cell cultures [7]", "value": ">400", "unit": "µg/mL"}, {"measurement": "Minimum inhibitory concentration Respiratory syncytial virus", "setting": "[8]", "value": ">400", "unit": "µg/mL"}, {"measurement": "Minimum inhibitory concentration Reovirus-1", "setting": "Reovirus-1 [9]", "value": 80, "unit": "µg/mL"}, {"measurement": "Minimum cytotoxic concentration", "setting": "HeLa cell cultures [10]", "value": ">400", "unit": "µg/mL"}]}
{"smiles": "NC(=O)CNC(=O)[C@@H]1CCCN1C(=O)[C@@H]1CCC(=O)N1", "note": "[PyrQ-PG-NH2, cyclic pyrroglutaminylprolylglycinamide] ([pGlu]-Pro-Gly-NH2)", "values": [{"measurement": "inhibition of HIV replication in cell culture", "setting": "HIV-1 (IIIB)", "value": "ineffective"}, {"measurement": "release of G-NH2 by CD26", "setting": "[11]", "value": "unable to release G-NH2"}, {"measurement": "EC50", "setting": "in vitro", "value": "> 2000", "unit": "µM"}, {"measurement": "EC50", "setting": "HIV-2 (EHO)", "value": "> 2000", "unit": "µM"}, {"measurement": "EC50", "setting": "HIV-2 (ROD)", "value": "> 2000", "unit": "µM"}]}
{"smiles": "O=c1[nH]c(=O)n([C@H]2C[C@H](O)[C@@H](CO)O2)cc1/C=C/Br", "note": "[BVDU]", "values": [{"measurement": "EC50", "setting": "[12]", "value": "> 400", "unit": "µg/mL"}, {"measurement": "EC50", "setting": "Coxsackie virus B4 [2]; [26]", "value": "> 400", "unit": "µg/mL"}, {"measurement": "Minimum cytotoxic concentration", "setting": "HeLa cell cultures [13]", "value": "≧400 μg/ml"}, {"measurement": "EC50", "setting": "Reovirus-1 [14]", "value": "> 400", "unit": "µg/mL"}, {"measurement": "EC50", "setting": "Parainfluenza-3 virus [15]", "value": "> 400", "unit": "µg/mL"}, {"measurement": "EC50", "setting": "Sindbis virus [16]", "value": "> 400", "unit": "µg/mL"}, {"measurement": "Minimum cytotoxic concentration", "setting": "HEL cell cultures", "value": ">400", "unit": "µg/mL"}, {"measurement": "EC50", "setting": "Coxsackie virus B4 [6]; [26]", "value": "> 400", "unit": "µg/mL"}, {"measurement": "EC50", "setting": "Vaccinia virus", "value": 0.64, "unit": "µg/mL"}, {"measurement": "EC50", "setting": "[17]", "value": 0.0256, "unit": "µg/mL"}, {"measurement": "EC50", "setting": "[18]", "value": 400, "unit": "µg/mL"}, {"measurement": "EC50", "setting": "Punta Toro virus [19]", "value": "> 400", "unit": "µg/mL"}, {"measurement": "Minimum cytotoxic concentration", "setting": "Vero cell cultures [20]", "value": ">400", "unit": "µg/mL"}, {"measurement": "EC50", "setting": "[21]", "value": "> 400", "unit": "µg/mL"}, {"measurement": "EC50", "setting": "[22]", "value": "> 400", "unit": "µg/mL"}, {"measurement": "EC50", "setting": "[23]", "value": 400, "unit": "µg/mL"}]}
{"smiles": "CCC(C)C(N)C(=O)N1CCCC1", "note": "[IlePyr, L-isoleucinepyrrolidine]", "values": [{"measurement": "IC50", "setting": "[24]", "value": 99, "unit": "µM"}]}
